Data taken from patent US11020371B2, “Anti-norovirus composition and utilization thereof” (YAIZU SUISANKAGAKU INDUSTRY CO., LTD., priority 2015, dated 2021).

Tests used:
[1] = test system: Murine norovirus strain S7; experiment: Test Example 1: antiviral activity against murine norovirus (virus inactivation, TCID50 on RAW 264.7 cells); assay type: cell-based; conditions: log(TCID50 untreated) - log(TCID50 treated); 60 min reaction; theaflavin purified product and tannic acid 1.5 mg/mL in 25% ethanol-added medium; products A and B stock solution
Description: [Test Method] […] Murine norovirus strain S7 was obtained and used. (2) Cell A RAW 264.7 cell being a cell line derived from a murine macrophage (ATCC (American Type Culture Collection) TIB-71) was obtained and used. […] The theaflavin-containing purified extract (hereinafter referred to as “theaflavin purified product”) obtained in Production Example 2 was used as a test sample. Moreover, as a test sample for comparison, tannic acid having nonspecific protein binding ability and also reported as to effectiveness against a norovirus, and products A and B being the existing anti-virus products were used. […] The theaflavin purified product was dissolved in dimethyl sulfoxide to be 71.7 mg/mL, and the resultant material was used in the test described below. Tannic acid was dissolved in dimethyl sulfoxide to be 169.9 mg/mL, and the resultant material was used in the test described below. […] A RAW 264.7 cell was monolayer cultured in a well of a 96-well plate, and washed twice with PBS (Phosphate Buffered Saline), and 200 μL of cell maintenance medium (2% fetal bovine serum-containing Dulbecco's Modified Eagle Medium (DMEM)) was added, and the resultant material was used in the test described below. (6) Anti-Virus Test For each test sample, a concentration was adjusted as described below, and the resultant material was applied as a test solution. […]

feline calicivirus = experiment: Test Example 3: anti-virus activity against feline calicivirus No. 2 (concentration, with or without 25% ethanol; TCID50 on CRFK cells); assay type: cell-based; conditions: only 25% ethanol, no addition of theaflavin purified product; 60 min reaction
Description: A cytopathic effect (CPE) was observed and a 50% tissue culture infectious dose (TCID50) being an indicator of a virus infectivity titer was calculated by the Behrens-Karber method. Moreover, a virus test solution untreated with the test sample was prepared in the same procedure, and the cytopathic effect was also observed on a cell to which the virus test solution was inoculated to determine a 50% tissue culture infectious dose (log (TCID50 value)). A reduction value of the virus infectivity titer by the test sample was calculated according to the formula (1) described below.
Anti-virus activity of the test sample against feline calicivirus was examined in the same manner as in Test Example 2 except that “(4) Preparation of sample for anti-virus test” and “(6) Anti-virus test” were conducted as described below.
(4) Preparation of Sample for Anti-Virus Test
A theaflavin purified product was dissolved in dimethyl sulfoxide to be 0.717 mg/mL (low concentration), 7.17 mg/mL (medium concentration) and 71.7 mg/mL (high concentration), and the resultant material was used in the test described below.
Then, 5 μL of a feline calicivirus solution and 45 μL of the test solution were mixed, and reacted for 60 minutes.
To the reaction liquid, 450 μL of serum-free Eagle's MEM medium was added to stop the reaction. […]

Row | SMILES | Reduction value of virus infectivity titer Average [1] | Average reduction value of virus infectivity titer (feline calicivirus)
1 | O=C(OC[C@H]1O[C@@H](OC(=O)c2cc(O)c(O)c(OC(=O)c3cc(O)c(O)c(O)c3)c2)[C@H](OC(=O)c2cc(O)c(O)c(OC(=O)c3cc(O)c(O)c(O)c3)c2)[C@@H](OC(=O)c2cc(O)c(O)c(OC(=O)c3cc(O)c(O)c(O)c3)c2)[C@@H]1OC(=O)c1cc(O)c(O)c(OC(=O)c2cc(O)c(O)c(O)c2)c1)c1cc(O)c(O)c(OC(=O)c2cc(O)c(O)c(O)c2)c1 [Tannic acid] | 0.5 | –
2 | CCO [ethanol] | – | 0.5
